US8247211B2, “Glycopeptide antibiotics” (American Cyanamid Company, priority 2001, dated 2012)
≈ marks a conversion by molar mass, not a printed value. Blank lines part the entries; values can stand above or below the molecule they belong to. Numbered stars: 1 amine (or outer) side, 2 acyl side, 3 side chain; on linkers, the order of the positions; unused ones are H or OH. Square brackets hold non-standard residues; d marks the D form. Peptide text beside a SMILES is read from it. * marks the point of attachment. ξ: configuration not given here. X1 = N=C1NCC(C(O)C(N[*:1])C(=O)[*:2])N1C1OC(CO)C(O)C(O)C1O; ξEnduracididine(βξ-OH,4'ξ) = N=C1NCC(C(O)C(N)C(=O)O)N1; X2 = OCC1OC(OC2C(CO)OC(*)C(O)C2O)C(O)C(O)C1O; ξCha(3ξ-Me) = CC(C1CCCCC1)C(N)C(=O)O

Columns and labels:
Test in all cases: In vitro antibacterial evaluation: minimum inhibitory concentration (MIC), broth dilution method
Assay type in all cases: cell-based
Escherichia coli = conditions: broth dilution, 18 hours at 35° C.
Enterococcus sp. = conditions: broth dilution, 18 hours at 35° C.
Outline: (§1)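 NCCLS M7-A2 broth dilution; Muller-Hinton II […]; 5×10^5 CFU/mL; 64-0.06 μg/mL. MIC = lowest concentration with no growth.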

Staphylococcus sp. = conditions: broth dilution, 18 hours at 35° C.; for MIC Staphylococcus aureus-SMITH (GC 4543): strain SMITH GC 4543
Outline: as §1

Streptococcus sp. = conditions: broth dilution, 18 hours at 35° C.
Outline: as §1

[1] = Enterococcus faecalis (ATCC 29212)
[2] = Enterococcus faecalis (GC 2242)
[3] = Enterococcus faecalis (GC 2691)
[4] = Enterococcus faecalis (GC 3059)
[5] = Enterococcus faecalis (GC 4552)
[6] = Enterococcus faecalis (GC 4553)
[7] = Enterococcus faecalis (GC 4554)
[8] = Enterococcus faecalis (GC 6189)
[9] = Streptococcus agalactiae (GC 4564)
[10] = Streptococcus pneumoniae (ATCC 6301)
[11] = Streptococcus pneumoniae (GC 1894)
[12] = Streptococcus pneumoniae (GC 4565)
[13] = Streptococcus pyogenes (GC 4563)

MIC Escherichia coli (ATCC 25922) (Escherichia coli): 16 µg/mL (≈ 13.6 µM)
MIC Escherichia coli (GC 4559) (Escherichia coli): 8 µg/mL (≈ 6.78 µM)
MIC Escherichia coli (GC 4560) (Escherichia coli): 4 µg/mL (≈ 3.39 µM)
MIC Enterococcus avium (GC 4558) (Enterococcus sp.; Enterococcus avium (GC 4558)): 4 µg/mL (≈ 3.39 µM)
MIC Enterococcus faecalis (ATCC 29212) (Enterococcus sp.; [1]): 16 µg/mL (≈ 13.6 µM)
MIC Enterococcus faecalis (GC 2242) (Enterococcus sp.; [2]): 16 µg/mL (≈ 13.6 µM)
MIC Enterococcus faecalis (GC 2691) (Enterococcus sp.; [3]): 16 µg/mL (≈ 13.6 µM)
MIC Enterococcus faecalis (GC 3059) (Enterococcus sp.; [4]): 32 µg/mL (≈ 27.1 µM)
MIC Enterococcus faecalis (GC 4552) (Enterococcus sp.; [5]): 2 µg/mL (≈ 1.69 µM)
MIC Enterococcus faecalis (GC 4553) (Enterococcus sp.; [6]): 4 µg/mL (≈ 3.39 µM)
MIC Enterococcus faecalis (GC 4554) (Enterococcus sp.; [7]): 16 µg/mL (≈ 13.6 µM)
MIC Enterococcus faecalis (GC 6189) (Enterococcus sp.; [8]): 16 µg/mL (≈ 13.6 µM)
MIC Enterococcus faecium (GC 2243) (Enterococcus sp.; Enterococcus faecium (GC 2243)): 8 µg/mL (≈ 6.78 µM)
MIC Enterococcus faecium (GC 4556) (Enterococcus sp.; Enterococcus faecium (GC 4556)): 8 µg/mL (≈ 6.78 µM)
MIC Enterococcus faecium (GC 4557) (Enterococcus sp.; Enterococcus faecium (GC 4557)): 2 µg/mL (≈ 1.69 µM)
MIC Enterococcus avium (GC 4558) (Enterococcus sp.): 4 µg/mL (≈ 3.39 µM)
MIC Enterococcus faecalis (ATCC 29212) (Enterococcus sp.): 16 µg/mL (≈ 13.6 µM)
MIC Enterococcus faecalis (GC 2242) (Enterococcus sp.): 16 µg/mL (≈ 13.6 µM)
MIC Enterococcus faecalis (GC 2691) (Enterococcus sp.): 16 µg/mL (≈ 13.6 µM)
MIC Enterococcus faecalis (GC 3059) (Enterococcus sp.): 32 µg/mL (≈ 27.1 µM)
MIC Enterococcus faecalis (GC 4552) (Enterococcus sp.): 2 µg/mL (≈ 1.69 µM)
MIC Enterococcus faecalis (GC 4553) (Enterococcus sp.): 4 µg/mL (≈ 3.39 µM)
MIC Enterococcus faecalis (GC 4554) (Enterococcus sp.): 16 µg/mL (≈ 13.6 µM)
MIC Enterococcus faecalis (GC 6189) (Enterococcus sp.): 16 µg/mL (≈ 13.6 µM)
MIC Enterococcus faecium (GC 2243) (Enterococcus sp.): 8 µg/mL (≈ 6.78 µM)
MIC Enterococcus faecium (GC 4556) (Enterococcus sp.): 8 µg/mL (≈ 6.78 µM)
MIC Enterococcus faecium (GC 4557) (Enterococcus sp.): 2 µg/mL (≈ 1.69 µM)
MIC Coagulase Negative Staphylococcus (GC 4547) (Staphylococcus sp.): 4 µg/mL (≈ 3.39 µM)
MIC Coagulase Negative Staphylococcus (GC 4548) (Staphylococcus sp.): 2 µg/mL (≈ 1.69 µM)
MIC Coagulase Negative Staphylococcus (GC 4549) (Staphylococcus sp.): 1 µg/mL (≈ 0.847 µM)
MIC Coagulase Negative Staphylococcus (GC 4551) (Staphylococcus sp.): 4 µg/mL (≈ 3.39 µM)
MIC Staphylococcus aureus SMITH (GC 4543) (Staphylococcus sp.): 2 µg/mL (≈ 1.69 µM)
MIC Staphylococcus aureus-SMITH (GC 4543) (Staphylococcus sp.): 2 µg/mL (≈ 1.69 µM)
MIC Streptococcus agalactiae (GC 4564) (Streptococcus sp.; [9]): 4 µg/mL (≈ 3.39 µM)
MIC Streptococcus pneumoniae (ATCC 6301) (Streptococcus sp.; [10]): 8 µg/mL (≈ 6.78 µM)
MIC Streptococcus pneumoniae (GC 1894) (Streptococcus sp.; [11]): 8 µg/mL (≈ 6.78 µM)
MIC Streptococcus pneumoniae (GC 4565) (Streptococcus sp.; [12]): 8 µg/mL (≈ 6.78 µM)
MIC Streptococcus pyogenes (GC 4563) (Streptococcus sp.; [13]): 2 µg/mL (≈ 1.69 µM)
MIC Streptococcus agalactiae (GC 4564) (Streptococcus sp.): 4 µg/mL (≈ 3.39 µM)
MIC Streptococcus pneumoniae (ATCC 6301) (Streptococcus sp.): 8 µg/mL (≈ 6.78 µM)
MIC Streptococcus pneumoniae (GC 1894) (Streptococcus sp.): 8 µg/mL (≈ 6.78 µM)
MIC Streptococcus pneumoniae (GC 4565) (Streptococcus sp.): 8 µg/mL (≈ 6.78 µM)
MIC Streptococcus pyogenes (GC 4563) (Streptococcus sp.): 2 µg/mL (≈ 1.69 µM)
SMILES: CC(c1ccccc1)C1NC(=O)CNC(=O)C(CO)NC(=O)C(C(O)C2CNC(=N)N2C2OC(CO)C(O)C(O)C2O)NC(=O)C(C(O)C2CNC(=N)N2)NC(=O)C(Cc2ccc3oc(SCC(=O)c4ccc(Cl)cc4)nc3c2)NC1=O (stereo not shown) [Example 49]
MIC Staphylococcus haemolyticus (GC 4546) (Staphylococcus sp.): 1 µg/mL (≈ 0.847 µM)

MIC Escherichia coli (ATCC 25922) (Escherichia coli): >64 µg/mL
MIC Escherichia coli (GC 4559) (Escherichia coli): 64 µg/mL (≈ 49.2 µM)
MIC Escherichia coli (GC 4560) (Escherichia coli): 8 µg/mL (≈ 6.15 µM)
MIC Enterococcus avium (GC 4558) (Enterococcus sp.; Enterococcus avium (GC 4558)): 64 µg/mL (≈ 49.2 µM)
MIC Enterococcus faecalis (ATCC 29212) (Enterococcus sp.; [1]): >64 µg/mL
MIC Enterococcus faecalis (GC 2242) (Enterococcus sp.; [2]): 64 µg/mL (≈ 49.2 µM)
MIC Enterococcus faecalis (GC 2691) (Enterococcus sp.; [3]): >64 µg/mL
MIC Enterococcus faecalis (GC 3059) (Enterococcus sp.; [4]): >64 µg/mL
MIC Enterococcus faecalis (GC 4552) (Enterococcus sp.; [5]): >64 µg/mL
MIC Enterococcus faecalis (GC 4553) (Enterococcus sp.; [6]): >64 µg/mL
MIC Enterococcus faecalis (GC 4554) (Enterococcus sp.; [7]): >64 µg/mL
MIC Enterococcus faecalis (GC 6189) (Enterococcus sp.; [8]): >64 µg/mL
MIC Enterococcus faecium (GC 2243) (Enterococcus sp.; Enterococcus faecium (GC 2243)): >64 µg/mL
MIC Enterococcus faecium (GC 4556) (Enterococcus sp.; Enterococcus faecium (GC 4556)): >64 µg/mL
MIC Enterococcus faecium (GC 4557) (Enterococcus sp.; Enterococcus faecium (GC 4557)): 16 µg/mL (≈ 12.3 µM)
MIC Enterococcus avium (GC 4558) (Enterococcus sp.): 64 µg/mL (≈ 49.2 µM)
MIC Enterococcus faecalis (ATCC 29212) (Enterococcus sp.): >64 µg/mL
MIC Enterococcus faecalis (GC 2242) (Enterococcus sp.): 64 µg/mL (≈ 49.2 µM)
MIC Enterococcus faecalis (GC 2691) (Enterococcus sp.): >64 µg/mL
MIC Enterococcus faecalis (GC 3059) (Enterococcus sp.): >64 µg/mL
MIC Enterococcus faecalis (GC 4552) (Enterococcus sp.): >64 µg/mL
MIC Enterococcus faecalis (GC 4553) (Enterococcus sp.): >64 µg/mL
MIC Enterococcus faecalis (GC 4554) (Enterococcus sp.): >64 µg/mL
MIC Enterococcus faecalis (GC 6189) (Enterococcus sp.): >64 µg/mL
MIC Enterococcus faecium (GC 2243) (Enterococcus sp.): >64 µg/mL
MIC Enterococcus faecium (GC 4556) (Enterococcus sp.): >64 µg/mL
MIC Enterococcus faecium (GC 4557) (Enterococcus sp.): 16 µg/mL (≈ 12.3 µM)
MIC Coagulase Negative Staphylococcus (GC 4547) (Staphylococcus sp.): 16 µg/mL (≈ 12.3 µM)
MIC Coagulase Negative Staphylococcus (GC 4548) (Staphylococcus sp.): 16 µg/mL (≈ 12.3 µM)
MIC Coagulase Negative Staphylococcus (GC 4549) (Staphylococcus sp.): 4 µg/mL (≈ 3.07 µM)
MIC Coagulase Negative Staphylococcus (GC 4551) (Staphylococcus sp.): 64 µg/mL (≈ 49.2 µM)
MIC Staphylococcus aureus SMITH (GC 4543) (Staphylococcus sp.): 32 µg/mL (≈ 24.6 µM)
MIC Staphylococcus aureus-SMITH (GC 4543) (Staphylococcus sp.): 32 µg/mL (≈ 24.6 µM)
MIC Streptococcus agalactiae (GC 4564) (Streptococcus sp.; [9]): 16 µg/mL (≈ 12.3 µM)
MIC Streptococcus pneumoniae (ATCC 6301) (Streptococcus sp.; [10]): 8 µg/mL (≈ 6.15 µM)
MIC Streptococcus pneumoniae (GC 1894) (Streptococcus sp.; [11]): 4 µg/mL (≈ 3.07 µM)
MIC Streptococcus pneumoniae (GC 4565) (Streptococcus sp.; [12]): 8 µg/mL (≈ 6.15 µM)
MIC Streptococcus pyogenes (GC 4563) (Streptococcus sp.; [13]): 8 µg/mL (≈ 6.15 µM)
MIC Streptococcus agalactiae (GC 4564) (Streptococcus sp.): 16 µg/mL (≈ 12.3 µM)
MIC Streptococcus pneumoniae (ATCC 6301) (Streptococcus sp.): 8 µg/mL (≈ 6.15 µM)
MIC Streptococcus pneumoniae (GC 1894) (Streptococcus sp.): 4 µg/mL (≈ 3.07 µM)
MIC Streptococcus pneumoniae (GC 4565) (Streptococcus sp.): 8 µg/mL (≈ 6.15 µM)
MIC Streptococcus pyogenes (GC 4563) (Streptococcus sp.): 8 µg/mL (≈ 6.15 µM)
SMILES: CC(C1CCCCC1)C1NC(=O)CNC(=O)C(CO)NC(=O)C(C(O)C2CNC(=N)N2C2OC(CO)C(O)C(O)C2O)NC(=O)C(C(O)C2CNC(=N)N2)NC(=O)C(Cc2ccc(OC3OC(CO)C(OC4OC(CO)C(O)C(O)C4O)C(O)C3O)cc2)NC1=O (stereo not drawn) [Example 51, Cyclo[3-cyclohexyl-2-aminobutyl-O-(4-O-hexopyranosylhexopyranosyl)tyrosyl-3-(2-iminoimidazolidin-4-yl)seryl-3-(3-hexopyranosyl-2-iminoimidazolidin-4-yl)-serylserylglycyl]] (cyclo(G[ξCha(3ξ-Me)]Y(X2)[ξEnduracididine(βξ-OH,4'ξ)][X1]S); configuration not given here)
MIC Staphylococcus haemolyticus (GC 4546) (Staphylococcus sp.): 32 µg/mL (≈ 24.6 µM)
